The text below walks through data of patent US8471021B2, “Sulfur containing heterocycle-fused naphthalene tetracarboxylic acid diimide derivatives, preparation method and use thereof” (Shanghai Institute Of Organic Chemistry, Chinese Academy Of …, priority 2009, dated 2013).

SMILES strings stand for the structures.

Data set [1] is described as follows: Cyclic voltammetry in dichloromethane. Type of data set: physicochemical. Particulars: for LUMO energy level: calculated by equation (2), −(E1/2^red1+4.44); for half-wave potential E1/2^red1 / half-wave potential E1/2^red2: Bu4NPF6 0.1 M, 50 mV/s. How it is done: Cyclic voltammetry measurement was conducted by CHI610D electrochemical analyzer with computer control using a conventional tri-electrode system with platinum electrode as a working electrode, saturated calomel electrode (SCE) as a reference electrode, and platinum wire as a counter electrode. Samples were dissolved in freshly distilled dichloromethane to a molar concentration of 1×10^−3 M. Bu4NPF6 (0.1 M) was applied as a supporting electrolyte. The scan rate was 50 mV/s. Using saturated calomel as reference, taking the SCE energy level to be −4.44 eV below the vacuum level, the LUMO energies for the test material can be calculated by using the following equation for energy level: ELUMO=−(E1/2^red1+4.44) eV (2)

Data set [2] in a line: UV absorption spectrum in dichloromethane. Type of data set: physicochemical. Particulars: for optical band gap: calculated by equation (1), 1240 nm/λonset. As to the method: UV absorption spectrum measurement was conducted using U-3900 spectrometer. Samples were dissolved in dichloromethane to a molar concentration of 1×10^−6M, the scanning scope was 800-200 nm, and the optical band gap of the compound was calculated according to the following equation, Egap^opt=1240 nm/λonset (1)

The nature of data set [3]: Solubility in common organic solvents at room temperature. The format is physicochemical. Particulars: for example chloroform, tetrahydrofuran. The source says:
The 21 exemplary compounds (1˜21) described above for the five classes of sulfur containing heterocycle fused naphthalenetetracarboxylic acid diimide derivatives are soluble in regular organic solvents, such as chloroform, toluene, chlorobenzene, dichlorobenzene, and the like.

Data set [4] in a line: Cyclic voltammetry in dichloromethane. The format is physicochemical. Particulars: calculated by equation (3), −(Ered^onset+4.4).

As for `CCCCCCCCCCCCC(CCCCCCCCCC)Cn1c(=O)c2c3sc(=C(C#N)C#N)sc3c3c(=O)n(CC(CCCCCCCCCC)CCCCCCCCCCCC)c(=O)c4c5sc(=C(C#N)C#N)sc5c(c1=O)c2c34` (stereo not shown) [Compound 1, N,N′-di(2-decyltetradecyl)-[2,3-d:6,7-d′]-bi[2-(1,3-dithiacyclopenten-2-ylidene)-2-malononitrile]-naphthalene-1,4,5,8-tetracarboxylic acid diimide], the melting point was 240 °C. Also, the LUMO energy level in data set [1] is reported as −4.35 eV. Further, in data set [1] (vs SCE, dichloromethane), the “half-wave potential E1/2^red1” value is given as −0.09 V and the “half-wave potential E1/2^red2” value is on record as −0.63 V. Moreover, the optical band gap in data set [2] is 2.1 eV. Besides, the “maximum UV absorption peak” value in data set [2] (dichloromethane, 1×10^−6M) was “around 573 nm”.
Turning to `CCCCCCCCCCC(CCCCCCCC)Cn1c(=O)c2c3sc(=C(C#N)C#N)sc3c3c(=O)n(CC(CCCCCCCC)CCCCCCCCCC)c(=O)c4c5sc(=C(C#N)C#N)sc5c(c1=O)c2c34` (stereo not shown) [Compound 2, N,N′-di(2-octyldodecyl)-[2,3-d:6,7-d′]-bi[2-(1,3-dithiacyclopenten-2-ylidene)-2-malononitrile]-naphthalene-1,4,5,8-tetracarboxylic acid diimide], the melting point came out at 265 °C.
Same read-out and setting: the figure for `CCCCCCCCC(CCCCCC)Cn1c(=O)c2c3sc(=C(C#N)C#N)sc3c3c(=O)n(CC(CCCCCC)CCCCCCCC)c(=O)c4c5sc(=C(C#N)C#N)sc5c(c1=O)c2c34` (stereo not shown) [Compound 3, N,N′-di(2-hexyldecyl)-[2,3-d:6,7-d′]-bi[2-(1,3-dithiacyclopenten-2-ylidene)-2-malononitrile]-naphthalene-1,4,5,8-tetracarboxylic acid diimide] is 317 to 319 °C; for `CCCCCCC(CCCCCC)Cn1c(=O)c2c3sc(=C(C#N)C#N)sc3c3c(=O)n(CC(CCCCCC)CCCCCC)c(=O)c4c5sc(=C(C#N)C#N)sc5c(c1=O)c2c34` [Compound 4, N,N′-di(2-hexyloctyl)-[2,3-d:6,7-d′]-bi[2-(1,3-dithiacyclopenten-2-ylidene)-2-malononitrile]-naphthalene-1,4,5,8-tetracarboxylic acid diimide] it is 349 to 351 °C.
Compound `CCCCCCC(CCCC)Cn1c(=O)c2c3sc(=C(C#N)C#N)sc3c3c(=O)n(CC(CCCC)CCCCCC)c(=O)c4c5sc(=C(C#N)C#N)sc5c(c1=O)c2c34` (stereo not shown) [Compound 5, N,N′-di(2-butyloctyl)-[2,3-d:6,7-d′]-bi[2-(1,3-dithiacyclopenten-2-ylidene)-2-malononitrile]-naphthalene-1,4,5,8-tetracarboxylic acid diimide] returned a melting point of 369 to 371 °C.
In the case of `CCCCC(CC)Cn1c(=O)c2c3sc(=C(C#N)C#N)sc3c3c(=O)n(CC(CC)CCCC)c(=O)c4c5sc(=C(C#N)C#N)sc5c(c1=O)c2c34` (stereo not shown) [Compound 6, N,N′-di(2-ethylhexyl)-[2,3-d:6,7-d′]-bi[2-(1,3-dithiacyclopenten-2-ylidene)-2-malononitrile]-naphthalene-1,4,5,8-tetracarboxylic acid diimide], the solubility result in data set [3] is “relatively low solubility”.
Consider `CCCCCCCCC(CCCCCC)CCn1c(=O)c2c3sc(=C(C#N)C#N)sc3c3c(=O)n(CCC(CCCCCC)CCCCCCCC)c(=O)c4c5sc(=C(C#N)C#N)sc5c(c1=O)c2c34` (stereo not shown) [Compound 7, N,N′-di(3-hexylundecyl)-[2,3-d:6,7-d′]-bi[2-(1,3-dithiacyclopenten-2-ylidene)-2-malononitrile]-naphthalene-1,4,5,8-tetracarboxylic acid diimide], for which the melting point was 330 to 332 °C.
For the compound `CCCCCCCCn1c(=O)c2c3sc(=C(C#N)C#N)sc3c3c(=O)n(CCCCCCCC)c(=O)c4c5sc(=C(C#N)C#N)sc5c(c1=O)c2c34` [Compound 8, N,N′-di(n-octyl)-[2,3-d:6,7-d′]-bi[2-(1,3-dithiacyclopenten-2-ylidene)-2-malononitrile]-naphthalene-1,4,5,8-tetracarboxylic acid diimide], the solubility result in data set [3] is recorded as “relatively low solubility”.
As to `CCCCCCCCCCC(CCCCCCCC)Cn1c(=O)c2c3sc(=C(C#N)C(=O)OCC)sc3c3c(=O)n(CC(CCCCCCCC)CCCCCCCCCC)c(=O)c4c5sc(=C(C#N)C(=O)OCC)sc5c(c1=O)c2c34` (stereo not shown) [Compound 9, N,N′-di(2-octyldodecyl)-[2,3-d:6,7-d′]-bi[ethyl 2-(1,3-dithiacyclopenten-2-ylidene)-2-cyanoacetate]-naphthalene-1,4,5,8-tetracarboxylic acid diimide], the LUMO energy level in data set [1] is −4.23 eV. Further, in data set [1] (vs SCE, dichloromethane), the “half-wave potential E1/2^red1” value is reported as −0.21 V and the “half-wave potential E1/2^red2” value is −0.68 V. The optical band gap in data set [2] is 2.0 eV. Besides, in data set [2] (dichloromethane, 1×10^−6M), the “maximum UV absorption peak” value is reported as “around 581 nm”.
Turning to `CCCCCCCCCCCCC(CCCCCCCCCC)Cn1c(=O)c2c3sc(=C(C#N)c4ccccc4)sc3c3c(=O)n(CC(CCCCCCCCCC)CCCCCCCCCCCC)c(=O)c4c5sc(=C(C#N)c6ccccc6)sc5c(c1=O)c2c34` (stereo not shown) [Compound 12, N,N′-di(2-decyltetradecyl)-[2,3-d:6,7-d′]-bi[2-(1,3-dithiacyclopenten-2-ylidene)-2-phenylacetonitrile]-naphthalene-1,4,5,8-tetracarboxylic acid diimide], in data set [1] (vs SCE, dichloromethane), the “onset reduction potential Ered^onset” value is −0.23 V and the half-wave potential E1/2^red1 is -0.81 V. Moreover, the LUMO energy level in data set [4] is listed as −4.17 eV. Besides, in data set [2], the optical band gap is on record as 1.8 eV. In addition, the “maximum UV absorption peak” value in data set [2] (dichloromethane, 1×10^−6M) is “around 655 nm”.
As to `CCCCCCCCCCC(CCCCCCCC)Cn1c(=O)c2c3sc(C#N)c(C#N)sc3c3c(=O)n(CC(CCCCCCCC)CCCCCCCCCC)c(=O)c4c5sc(C#N)c(C#N)sc5c(c1=O)c2c34` (stereo not shown) [Compound 15, N,N′-di(2-octyl-dodecyl)-[2,3-d:6,7-d′]-bi[1,4-dithiacyclohexadiene-2,3-dicarbonitrile]-naphthalene-1,4,5,8-tetracarboxylic acid diimide], the LUMO energy level in data set [1] is listed as −4.28 eV. Also, in data set [1] (vs SCE, dichloromethane), the “half-wave potential E1/2^red1” value is −0.16 V and the “half-wave potential E1/2^red2” value is recorded as −0.64 V. The optical band gap in data set [2] is listed as 2.0 eV. In addition, the “maximum UV absorption peak” value in data set [2] (dichloromethane, 1×10^−6M) was “around 550 nm”.
On to `CCCCCCCCCCCCC(CCCCCCCCCC)CN1C(=O)c2c3sc(C#N)c(C#N)c3c3c4c(c5sc(C#N)c(C#N)c5c(c24)C1=O)C(=O)N(CC(CCCCCCCCCC)CCCCCCCCCCCC)C3=O` (stereo not drawn) [Compound 18, N,N′-di(2-decyl-tetradecyl)-[2,3-d:6,7-d′]-bi[α,β-dicyanothiophene]-naphthalene-1,4,5,8-tetracarboxylic acid diimide], for which the LUMO energy level in data set [1] is listed as −4.63 eV. Moreover, in data set [1] (vs SCE, dichloromethane), the “half-wave potential E1/2^red1” value was found to be 0.19 V and the “half-wave potential E1/2^red2” value is recorded as −0.40 V. Besides, in data set [2], the optical band gap was 2.2 eV. Besides, in data set [2] (dichloromethane, 1×10^−6M), the end absorption peak is on record as 545 nm and the “maximum UV absorption peak” value was 250˜318 nm.
